The source of these data is patent US8552022B2, “Substituted cyclopropyl compounds, compositions containing such compounds and methods of treatment” (Merck Sharp & Dohme Corp., priority 2009, dated 2013).

The target of this assay is T1, GPR119 (UniProt Q8TDV5, S309L, species not given).
T1 sequence (Q8TDV5 1-335 S309L): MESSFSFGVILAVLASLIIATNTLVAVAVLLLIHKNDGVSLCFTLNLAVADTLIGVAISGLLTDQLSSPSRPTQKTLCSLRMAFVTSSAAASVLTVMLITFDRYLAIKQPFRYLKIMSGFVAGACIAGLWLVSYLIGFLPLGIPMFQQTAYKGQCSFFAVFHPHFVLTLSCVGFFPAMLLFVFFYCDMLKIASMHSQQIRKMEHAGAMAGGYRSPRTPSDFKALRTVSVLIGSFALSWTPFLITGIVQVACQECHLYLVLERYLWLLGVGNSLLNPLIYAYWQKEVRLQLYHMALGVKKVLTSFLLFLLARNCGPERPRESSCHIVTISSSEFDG
Briefly: GPR119 signaling, cyclic AMP (cAMP) HTRF assay. The class given is cell-based, human (S309L variant) or murine. Conditions: CHO cells with Gα15 and murine GPR119 or HEK293 Flp-In cells with human GPR119 S309L, read-out: EC50 (agonist activation of GPR119, cAMP). From the text: The title compound was synthesized using 2-{2-[1-(5-chloropyrimidin-2-yl)piperidin-4-yl]cyclopropyl}ethyl 4-methylbenzenesulfonate from step 1 of this example by a general procedure analogous that described in Example 59. LRMS calc: 424.9; obs: 425.01 (M+1). Measurement of GPR119Signaling Using a Cyclic AMP (cAMP) Homogenous Time Resolved Fluorescence (HTRF) Assay
Chinese hamster ovary (CHO) cell lines stably transfected with the permissive guanine nucleotide binding protein alpha 15 (Gα15) and murine GPR119 were maintained in DMEM media containing FBS, penicillin-streptomycin, puromycin, and G418 (geneticin). Alternatively, human embryonic kidney (HEK)293 Flp-In cells (Invitrogen, Carlsbad, Calif.) were stably transfected with a human SNP variant (S309L) of GPR119 and maintained in DMEM media containing FBS, penicillin-streptomycin, and hygromycin. Agonist activation of the GPR119 receptor was measured in receptor transfected cells described above, treated with compounds of this invention, using a commercial homogenous time resolved fluorescence (HTRF) kit for measurement of cAMP (CisBio, Bedford, Mass.). The assay was performed in 96-well half-volume plates (murine) or 384-well plates (human) following the manufacturers instructions. Briefly, suspended cells were incubated with a dose titration of test compound at room temperature for 60 min, lysed, and incubated with HTRF reagents for an additional 60 min. The plate was read using an Envision multilabel reader (Perkin Elmer) adjusted to read time resolved fluorescence and the cAMP concentrations were extrapolated from a cAMP calibration curve. […] The concentration of test compound required to stimulate a half-maximal response (EC50), and efficacy as compared to an internal agonist control, was determined from a sigmoidal 4-parameter curve fit of the resulting plot of normalized activity versus compound concentration.
On the technique in general: Time-resolved FRET reads energy transfer from a long-lived donor to a nearby acceptor.
What is called EC50 is the concentration needed to bring the measured effect to its halfway point. `Cc1nc(C#N)cc(NCC[C@@H]2C[C@@H]2C2CCN(c3ncc(Cl)cn3)CC2)n1` (racemic) [Ex 4, rac-cis-6-[(2-{2-[1-(5-chloropyrimidin-2-yl)piperidin-4-yl]cyclopropyl}ethyl)amino]-2-methylpyrimidine-4-carbonitrile]: the EC50 was less than 10 nM.
The same measure for `Cc1nc(C#N)cc(NCC[C@H]2C[C@@H]2C2CCN(c3ncc(Cl)cn3)CC2)n1` (relative stereo) [Ex 61, trans 6-[(2-{2-[1-(5-chloropyrimidin-2-yl)piperidin-4-yl]cyclopropyl}ethyl)amino]-2-methylpyrimidine-4-carbonitrile]: less than 10 nM; for `CS(=O)(=O)c1ccc(NCC[C@@H]2C[C@H]2C2CCN(c3ncc(Cl)cn3)CC2)cc1` (single isomer, unassigned) [Ex 58, trans-N-(2-{2-[1-(5-chloropyrimidin-2-yl)piperidin-4-yl]cyclopropyl}ethyl)-4-(methylsulfonyl)aniline]: 50 to 200 nM; for `Clc1cnc(N2CCC(C3CC3CCNc3ccc(-n4cncn4)nc3)CC2)nc1` (single isomer, unassigned) [Ex 59, trans-N-(2-{2-[1-(5-chloropyrimidin-2-yl)piperidin-4-yl]cyclopropyl}ethyl)-6-1H-1,2,4-triazol-1-yl)pyridin-3-amine]: 10 to 50 nM.
`CS(=O)(=O)c1ccc(NCC[C@@H]2C[C@H]2C2CCN(c3ncc(Cl)cn3)CC2)cc1` (single isomer, unassigned) [Ex 60, trans N-(2-{2-[1-(5-chloropyrimidin-2-yl)piperidin-4-yl]cyclopropyl}ethyl)-4-(methylsulfonyl)aniline]: the EC50 lay within 50 to 200 nM.
The same measure for `Clc1cnc(N2CCC([C@@H]3C[C@H]3CCNc3ccc(-n4cncn4)nc3)CC2)nc1` (single isomer, unassigned) [Ex 62, trans N-(2-{2-[1-(5-chloropyrimidin-2-yl)piperidin-4-yl]cyclopropyl}ethyl)-6-(1H-1,2,4-triazol-1-yl)pyridin-3-amine]: 10 to 50 nM; for `Cc1nc(C#N)cc(NCC[C@@H]2C[C@@H]2C2CCN(c3ncc(Cl)cn3)CC2)n1` [Ex 5, 6-[(2-{(1S,2S)-2-[1-(5-chloropyrimidin-2-yl)piperidin-4-yl]cyclopropyl}ethyl)amino]-2-methylpyrimidine-4-carbonitrile]: 10 to 50 nM.
With `CS(=O)(=O)c1ccc(NCC[C@@H]2C[C@@H]2C2CCN(c3ncc(Cl)cn3)CC2)nc1` [Ex 6, N-(2-{(1S,2S)-2-[1-(5-chloropyrimidin-2-yl)piperidin-4-yl]cyclopropyl}ethyl)-5-(methylsulfonyl)pyridin-2-amine], the EC50 fell in the range of 10 to 50 nM.
As for `CS(=O)(=O)c1ccc(NCC[C@@H]2C[C@@H]2C2CCN(c3ncc(Cl)cn3)CC2)cc1` [Ex 7, N-(2-{(1S,2S)-2-[1-(5-chloropyrimidin-2-yl)piperidin-4-yl]cyclopropyl}ethyl)-4-(methylsulfonyl)aniline], the figure is less than 10 nM; as for `Clc1cnc(N2CCC([C@H]3C[C@H]3CCNc3ccc(-n4ccnn4)cn3)CC2)nc1` [Ex 8, N-(2-{(1S,2S)-2-[1-(5-chloropyrimidin-2-yl)piperidin-4-yl]cyclopropyl}ethyl)-5-(1H-1,2,3-triazol-1-yl)pyridin-2-amine], less than 10 nM; as for `CN(CC[C@@H]1C[C@@H]1C1CCN(c2ncc(Cl)cn2)CC1)c1ccc(S(C)(=O)=O)cc1` [Ex 9, N-(2-{(1S,2S)-2-[1-(5-chloropyrimidin-2-yl)piperidin-4-yl]cyclopropyl}ethyl)-N-methyl-4-(methylsulfonyl)aniline], 50 to 200 nM.
For the compound `Clc1cnc(N2CCC([C@H]3C[C@H]3CCNc3ccc(-n4cnnn4)cc3)CC2)nc1` [Ex 10, N-(2-{(1S,2S)-2-[1-(5-chloropyrimidin-2-yl)piperidin-4-yl]cyclopropyl}ethyl)-4-(1H-tetrazol-1-yl)aniline], the EC50 was less than 10 nM.
The same measure for `Clc1cnc(N2CCC([C@H]3C[C@H]3CCNc3ccc(-n4cncn4)cc3)CC2)nc1` [Ex 11, N-(2-{(1S,2S)-2-[1-(5-chloropyrimidin-2-yl)piperidin-4-yl]cyclopropyl}ethyl)-4-(1H-1,2,4-triazol-1-yl)aniline]: less than 10 nM.
The same measure for `Clc1cnc(N2CCC([C@H]3C[C@H]3CCNc3ccc(-c4ccn[nH]4)cc3)CC2)nc1` [Ex 12, N-(2-{(1S,2S)-2-[1-(5-chloropyrimidin-2-yl)piperidin-4-yl]cyclopropyl}ethyl)-4-(1H-pyrazol-5-yl)aniline]: less than 10 nM.
The same measure for `Cn1cnnc1-c1ccc(NCC[C@@H]2C[C@@H]2C2CCN(c3ncc(Cl)cn3)CC2)cc1` [Ex 13, N-(2-{(1S,2S)-2-[1-(5-chloropyrimidin-2-yl)piperidin-4-yl]cyclopropyl}ethyl)-4-(4-methyl-4H-1,2,4-triazol-3-yl)aniline]: 10 to 50 nM; for `Clc1cnc(N2CCC([C@H]3C[C@H]3CCNc3ccc(-n4cncn4)nc3)CC2)nc1` [Ex 14, N-(2-{(1S,2S)-2-[1-(5-chloropyrimidin-2-yl)piperidin-4-yl]cyclopropyl}ethyl)-6-(1H-1,2,4-triazol-1-yl)pyridin-3-amine]: less than 10 nM; for `Clc1cnc(N2CCC([C@H]3C[C@H]3CCNc3ccc(-n4cnnn4)nc3)CC2)nc1` [Ex 15, N-(2-{(1S,2S)-2-[1-(5-chloropyrimidin-2-yl)piperidin-4-yl]cyclopropyl}ethyl)-6-(1H-tetrazol-1-yl)pyridin-3-amine]: less than 10 nM.
For `Clc1cnc(N2CCC([C@H]3C[C@H]3CCNc3cnc(-n4cncn4)nc3)CC2)nc1` [Ex 16, N-(2-{(1S,2S)-2-[1-(5-chloropyrimidin-2-yl)piperidin-4-yl]cyclopropyl}ethyl)-2-(1H-1,2,4-triazol-1-yl)pyrimidin-5-amine], the EC50 is 10 to 50 nM.
On to `Cc1nnn(-c2ccc(NCC[C@@H]3C[C@@H]3C3CCN(c4ncc(Cl)cn4)CC3)cn2)n1` [Ex 17, N-(2-{(1S,2S)-2-[1-(5-chloropyrimidin-2-yl)piperidin-4-yl]cyclopropyl}ethyl)-6-(5-methyl-2H-tetrazol-2-yl)pyridin-3-amine], for which the EC50 was less than 10 nM.
The same measure for `Cc1nnnn1-c1ccc(NCC[C@@H]2C[C@@H]2C2CCN(c3ncc(Cl)cn3)CC2)cn1` [Ex 18, N-(2-{(1S,2S)-2-[1-(5-chloropyrimidin-2-yl)piperidin-4-yl]cyclopropyl}ethyl)-6-(5-methyl-1H-tetrazol-1-yl)pyridin-3-amine]: 10 to 50 nM.
With `Clc1cnc(N2CCC([C@H]3C[C@H]3CCNc3ccc(-n4nccn4)nc3)CC2)nc1` [Ex 19, N-(2-{(1S,2S)-2-[1-(5-chloropyrimidin-2-yl)piperidin-4-yl]cyclopropyl}ethyl)-6-(2H-1,2,3-triazol-2-yl)pyridin-3-amine], the EC50 was in the range of 10 to 50 nM.
As for `O=C1CCCN1c1ccc(NCC[C@@H]2C[C@@H]2C2CCN(c3ncc(Cl)cn3)CC2)cn1` [Ex 20, 1-{5-[(2-{(1S,2S)-2-[1-(5-chloropyrimidin-2-yl)piperidin-4-yl]cyclopropyl}ethyl)amino]pyridin-2-yl}pyrrolidin-2-one], the figure is 10 to 50 nM.
As for `Clc1cnc(N2CCC([C@H]3C[C@H]3CCNc3ccc(-n4ccnn4)cc3)CC2)nc1` [Ex 21, N-(2-{(1S,2S)-2-[1-(5-chloropyrimidin-2-yl)piperidin-4-yl]cyclopropyl}ethyl)-4-(1H-1,2,3-triazol-1-yl)aniline], the EC50 was less than 10 nM.
Turning to `Cc1cc(NCC[C@@H]2C[C@@H]2C2CCN(c3ncc(Cl)cn3)CC2)cc(C#N)n1` [Ex 22, 4-[(2-{(1S,2S)-2-[1-(5-chloropyrimidin-2-yl)piperidin-4-yl]cyclopropyl}ethyl)amino]-6-methylpyridine-2-carbonitrile], the EC50 was less than 10 nM.
The same measure for `Clc1cnc(N2CCC([C@H]3C[C@H]3CCNc3cnc(-n4cncn4)cn3)CC2)nc1` [Ex 23, N-(2-{(1S,2S)-2-[1-(5-chloropyrimidin-2-yl)piperidin-4-yl]cyclopropyl}ethyl)-5-(1H-1,2,4-triazol-1-yl)pyrazin-2-amine]: less than 10 nM; for `Clc1cnc(N2CCC([C@H]3C[C@H]3CCNc3ccc(-n4cnnn4)cn3)CC2)nc1` [Ex 24, N-(2-{(1S,2S)-2-[1-(5-chloropyrimidin-2-yl)piperidin-4-yl]cyclopropyl}ethyl)-5-(1H-tetrazol-1-yl)pyridin-2-amine]: less than 10 nM.
